Experiments:
[1] = test system: monocyte-derived DC from chimpanzee; assay: FACS binding of biotinylated DC-peptides to chimpanzee DC
Method: (§1) Peripheral blood mononuclear cells (PBMCs) were isolated from blood of healthy or HCV^+ individuals by Ficoll gradient centrifugation. HCV RNA was detected in the blood of HCV-infected patients by RT-PCR. PBMCs (10^7/well) were seeded in 6-well plates for 2 hrs at 37° C. Subsequently, non-adherent cells were removed by several washes using PBS plus 2% fetal calf serum (FCS) and frozen for autologous MLR experiments. Adherent monocytes were cultured with GM-CSF (100 ng/ml) and IL-4 (10 ng/ml) in complete RPMI for 6 days (6). CD1a^+DR^bright DC were phenotyped by FACS before use. Rhesus macaque or chimpanzees DC were prepared in a parallel fashion by using Hgm-CSF (100 ng/ml) and Hil-4 (50 ng/ml) for six days (15). Mouse DC were prepared from bone marrow of BALB/c mice as described (16). On day six, CD11c^+I-A^+ DC were harvested, phenotyped and used for DC-peptide staining.
(§2) MDC (5×10^5) were incubated with biotinylated peptides (10 μg/ml each) for 1 hr at 4° C. Subsequently, cells were washed, incubated with SA-PE (1:100) for 1 hr, fixed with 0.1% paraformaldehyde and analyzed on a FACSCalibur™ using standard CellQuest software (Becton Dickinson). T cells were analyzed as we described (19). At least 10^4 gated events/condition were acquired for all analyses.
(§3) To test peptide binding specificity, biotinylated peptides #3, #12 and #18 were incubated with CD1a^+DR^bright CD11^bright monocyte-derived human DC, and analyzed by FACS.

[2] = test system: monocyte-derived DC from rhesus macaque; assay: FACS binding of biotinylated DC-peptides to rhesus macaque DC; conditions: FACS (FIG. 1E)
Method: as §1, §2, §3

[3] = test system: CD1a+DRbright CD11bright monocyte-derived human DC; assay: FACS binding of biotinylated DC-peptides to human monocyte-derived DC; conditions: for binding to monocyte-derived human DC: biotinylated peptides, FACS and confocal microscopy (FIG. 1A, 1B)
Method: as §1, §2, §3
The cognate ligands for these peptides are unknown. Thus, we next tested whether these peptides bound distinct epitopes. DC presaturated with non-biotinylated peptide no longer bound the corresponding biotinylated peptide (FIG. 2A). […] Thus, the three DC-binding peptides bound distinct, saturable DC surface epitopes.
Biotinylated peptide #3 bound immature DC within 1 hr at 4° C. (FIG. 2D). Staining was decreased over the following 20 hrs at 37° C. (FIG. 2D) consistent with antigen uptake by Dcs (15, 22). […] Peptides bound immature (upper panel) and mature MDC (lower panel) comparably (FIG. 2E), although LPS-mediated maturation appeared to increase peptide binding slightly by inducing a new, minor population of high peptide-binding DC.

[4] = test system: CD11c+I-A+ DC derived from mouse bone marrow; assay: FACS binding of biotinylated DC-peptides to mouse bone marrow derived DC; conditions: FACS (FIG. 1F)
Method: as §1, §2, §3

binding to monocyte-derived DC from chimpanzee [1]	binding to monocyte-derived DC from rhesus macaque [2]	binding to monocyte-derived human DC [3]	binding of 12-mer peptide to DC ([3]; selected from the same panning as negative control)	Sequence	binding to CD11c+I-A+ DC derived from mouse bone marrow [4]	staining of DC over the following 20 hrs ([3]; 37° C., consistent with antigen uptake (FIG. 2D))	DC viability during peptide incubation ([3]; 20 hrs at 37° C.)	time to binding of immature DC ([3]; biotinylated peptide, 4° C. (FIG. 2D)) [h]
specifically bound	specifically bound	bound to DC	–	AYYKTASLAPAE (PEPTIDE peptide specific to myeloid dendritic cells) [compound 12]	did not	–	–	–
–	–	–	did not bind to DC	EPIHPETTFTNN [control peptide, reference compound]	–	–	–	–
specifically bound	specifically bound	bound to DC	–	SLSLLTMPGNAS (PEPTIDE peptide specific to myeloid dendritic cells) [compound 18]	did not	–	–	–

Sequence	binding to monocyte-derived DC from chimpanzee [1]	binding to monocyte-derived DC from rhesus macaque [2]	binding to monocyte-derived human DC [3]	binding of 12-mer peptide to DC ([3]; selected from the same panning as negative control)	binding to CD11c+I-A+ DC derived from mouse bone marrow [4]	staining of DC over the following 20 hrs ([3]; 37° C., consistent with antigen uptake (FIG. 2D))	DC viability during peptide incubation ([3]; 20 hrs at 37° C.)	time to binding of immature DC ([3]; biotinylated peptide, 4° C. (FIG. 2D)) [h]
FYPSYHSTPQRP [peptide #3]	specifically bound	specifically bound	bound to DC	–	bound	decreased	remained viable	≤ 1
